The numbers were not newly measured in US3955959A, “Herbicide for use in transplanted rice” (priority 1974, dated 1976), which cites them from elsewhere.

In one data set the test system is rice. As to conditions: prior art; cited from earlier work.
Another data set relates to weeds in rice fields. Conditions: prior art; cited from earlier work.

Structures are written as SMILES.

As to `CC(C)Oc1cc(-n2nc(C(C)(C)C)oc2=O)c(Cl)cc1Cl` [2-tert-butyl-4-(2,4-dichloro-5-isopropyloxyphenyl)-5-oxo-1,3,4-oxadiazoline], the crop safety result in the data set with rice was “marginal crop safety”. In the case of `CCSC(=O)N1CCCCCC1` [S-ethyl hexahydro-1H-azepine-1-carbothioate], the “spectrum of weed control” value in the data set with weeds in rice fields is given as “narrow spectrum of weed control”.
